# Test results as given in patent publication US5961482A, “Iontotherapeutic device and process and iontotherapeutic unit dose” (Rutgers, The State University Of New Jersey, priority 1996, dated 1999).
# Several values for one entry are separate records, joined by “and”; a condition that tells them apart may be missing. Equal values may be shown once.
# Experiments:
# [1] = In vitro skin permeation of vasopressin, Valia-Chien cell, H^3-vasopressin scintillation counting; format: in vitro ADME, hairless rat; conditions: pH 7.4
# [2] = as above; format: in vitro ADME, hairless rat; conditions: for Enhancement factor: vs passive diffusion (1.32 ng/cm^2 /hr)
# Description: (§1) An aqueous buffer solution of vasopressin (50 mcg/ml containing 1.7 mcCi/ml H^3 -vasopressin) is prepared in citrate-phosphate buffer at pH 5.0. An aliquot of 3.5 ml of this vasopressin solution is filled into the refillable dosage unit having a microporous membrane as the drug-releasingsurface. The dosage unit is then assembled as a part of the pharmaceutical reservoir electrode of the iontotherapeutic device and membrane surface thereof is applied to the stratum corneum side of hairless rat skin mounted in the Valia-Chien skin permeation cell at 37° C. Samples are withdrawn at regular intervals and radioactivity is measured by scintillation counter to determine the amount of vasopressin which has been transdermally absorbed.
# as §1, with “aqueous buffered” for “aqueous buffer”, “pH 7.4 with varying ionic strengths.” for “pH 5.0.”, “the drug-releasing surface.” for “the drug-releasingsurface.”, “regular time” for “regular”
# as §1, with “aqueous buffered” for “aqueous buffer”, “pH 5.0 at ionic strength of 0.064.” for “pH 5.0.”, “the drug-releasing surface.” for “the drug-releasingsurface.”, “regular time” for “regular”
# [3] = system: urine osmolarity in anesthetized rabbits; experiment: Urine osmolarity / urine output in anesthetized rabbits; format: in vivo
# Description: An aqueous buffer solution of vasopressin (40 IU/ml) is prepared in citrate-phosphate buffer at pH 5.0. Vasopressin is an anti-diuretic pharmaceutical, which is used by patients which have an excessive urine output. Vasopressin caused a reduction of urine output and an increase in ion content, such as sodium ion content. Ion content in the urine is determined by using osmolarity measurement. An aliquot of 3.5 ml of this vasopressin solution is filled into the refillable dosage unit having a microporous membrane as the drug-releasing surface. The dosage unit is then assembled as a part of the pharmaceutical reservoir electrode of the iontotherapeutic device and membrane surface thereof is applied to the abdominal skin of 2 groups of anesthetized rabbits. Blood samples are withdrawn and urine samples are collected at regular time intervals and urine osmolarity is measured by osmometer. The increases in osmolarity from the basal level are the pharmacodynamic responses to the vasopressin transdermally absorbed.
# [4] = TPIS 0.3 mA, 16 KHz, on/off 1/1, 60 min, pH 5.0, ionic strength 0.064
smiles,measurement,setting,value
"NC(=O)CC[C@@H]1NC(=O)[C@H](Cc2ccccc2)NC(=O)[C@H](Cc2ccc(O)cc2)NC(=O)[C@@H](N)CSSC[C@@H](C(=O)N2CCC[C@H]2C(=O)N[C@@H](CCCN=C(N)N)C(=O)NCC(N)=O)NC(=O)[C@H](CC(N)=O)NC1=O [Vasopressin, vasopressin]",Skin Permeation Rate,"[1]; TPIS 0.5 mA, 2 KHz, on/off 1/1, ionic strength 0.061, ± SD",632.6 (±65.0) ng/cm^2 /hr
same,Skin Permeation Rate,"[1]; TPIS 0.5 mA, 2 KHz, on/off 1/1, ionic strength 0.244, ± SD",101.4 (±9.1) ng/cm^2 /hr
same,Skin Permeation Rate,"[1]; passive diffusion, 30 hours",1.32±0.38 ng/cm^2 /hr
same,Skin Permeation Rate,"[2]; NO TPIS, 0.0 mA (passive diffusion), pH 5.0, X ± SD",0.94±0.62 ng/cm^2 hr and 0.94 (±0.62) ng/cm^2 hr
same,Skin Permeation Lag Time,"[2]; NO TPIS, 0.0 mA, pH 5.0, X ± SD",9.12 (±1.06) hours
same,time after TPIS treatment for skin permeability to return to the rate before treatment,"[2]; TPIS 0.3 mA, 16 KHz, 60 min, pH 5.0, ionic strength 0.064",less than 2 hours
same,Skin Permeation Rate,[2]; [4],757.3 (±53.2) ng/cm^2 /hr
same,duration of time lag,[2]; [4],0.40 (±0.06) hours
same,Skin Permeation Rate,"[2]; TPIS 0.5 mA, 2 KHz, on/off 1/1, pH 7.4, ionic strength 0.122, ± SD",244.6 (±26.3) ng/cm^2 /hr
same,Skin Permeation Rate,"[2]; TPIS 0.5 mA, 2 KHz, on/off 1/1, pH 7.4, ionic strength 0.488, ± SD",65.9 (±13.1) ng/cm^2 /hr
same,Skin Permeation Lag Time,"[2]; With TPIS, activation phase, 0.5 mA, 2 KHz, on/off 1/1, 10 min per 40 min, pH 5.0",< 0.5 h
same,Skin Permeation Rate,"[2]; With TPIS, activation phase, 0.5 mA, 2 KHz, on/off 1/1, 10 min per 40 min, pH 5.0, X ± SD",116.2 (±10.7) ng/cm^2 hr
same,Skin Permeation Lag Time,"[2]; With TPIS, activation phase, 1.0 mA, 2 KHz, on/off 1/1, 10 min per 40 min, pH 5.0",< 0.5 h
same,Skin Permeation Rate,"[2]; With TPIS, activation phase, 1.0 mA, 2 KHz, on/off 1/1, 10 min per 40 min, pH 5.0, X ± SD",178.0 (±25) ng/cm^2 hr
same,duration of time lag,"[2]; passive diffusion, pH 5.0, ionic strength 0.064",9 h
same,Skin Permeation Rate,"[2]; passive diffusion, pH 5.0, ionic strength 0.064, 30 hours",0.98±0.26 ng/cm^2 /hr
same,Skin Permeation Rate,"[2]; post-activation phase (0.0 mA) after 0.5 mA TPIS, pH 5.0, X ± SD",0.7 (±0.4) ng/cm^2 hr
same,Skin Permeation Rate,"[2]; post-activation phase (0.0 mA) after 1.0 mA TPIS, pH 5.0, X ± SD",5.3 (±0.5) ng/cm^2 hr
same,Enhancement factor,"[2]; TPIS 0.5 mA, ionic strength 0.061",472.8 (±59.0)
same,Enhancement factor,"[2]; TPIS 0.5 mA, ionic strength 0.122",185.3 (±19.9)
same,Enhancement factor,"[2]; TPIS 0.5 mA, ionic strength 0.244",76.8 (±6.9)
same,Enhancement factor,"[2]; TPIS 0.5 mA, ionic strength 0.488",49.9 (±18.0)
same,"urine osmolarity, TPIS vs TIDD","[3]; TPIS 0.22 mA/cm^2, 2 KHz, on/off 1/1, square, 40 min, 40 IU/ml pH 5.0",increases from the basal levels more rapidly and substantially
same,"urine output, TPIS vs TIDD","[3]; TPIS, vasopressin solution pH 5.0",more effective in reducing urine output than TIDD
